Reference: publication PMC10770618, “A simple assay for inhibitors of mycobacterial oxidative phosphorylation” (The Journal of Biological Chemistry, 2023)
pIC50: −log10 of the molar value. Like-named read-outs stand apart in the source and are kept apart here.

Biological target: T1, CIII2CIV2 (Complex III2IV2, cytochrome bcc-aa3 supercomplex) (Mycolicibacterium smegmatis, UniProt A0R052+I7GD61)
T1 construct: gene MSMEG_4263; CIII2CIV2 in IMVs from strain QcrB-3×FLAG (3×FLAG tag at the C terminus of the QcrB subunit); with other subunits of the CIII2CIV2 supercomplex
Experiment: succinate-driven acidification of inverted membrane vesicles (ACMA fluorescence); no inhibition of ATP-driven acidification
Format: biochemical

Cc1c(OCC(F)(F)F)ccnc1CSc1nc2ccccc2[nH]1 [LPZS, lansoprazole sulfide]
pIC50 (read-out: IC50): ~6.07

CCc1nc2ccc(Cl)cn2c1C(=O)NCc1ccc(N2CCC(c3ccc(OC(F)(F)F)cc3)CC2)cc1 [Q203, telacebec]
pIC50: ~6.85
